Data as given in PubChem BioAssay (NCI).
Where “and” joins values, the source holds several entries; their conditions need not be identical. Equal entries are not always repeated.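 Dose response: 5 concentrations. Exposure: 48 h. Format: 96-well plates. Endpoint: linear interpolation; highest concentration if not reached. GI50: concentration for 50% inhibition of growth. TGI marks complete inhibition of growth.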

Legend:
Assay in all cases: DTP human tumour cell line panel, 48 h; in the data active means GI50 below about 0.43 µM; inactive means the rest
[1] = system: SNB-19 CNS
[2] = system: RPMI-8226 leukemia
[3] = system: OVCAR-3 ovarian
[4] = system: CAKI-1 renal
[5] = system: UACC-257 melanoma
[6] = system: MALME-3M melanoma
[7] = system: SW-620 colon
[8] = system: UO-31 renal
[9] = system: NCI-H522 lung
[10] = system: BT-549 breast

COCC(C)(C)N=CN1Cc2cc3ccccc3nc2C1
> 100 µM: TGI [1] | TGI [2] | TGI [3] | TGI [4] | TGI [5] | TGI [6] | TGI [7] | TGI [8] | TGI [9]

C[C@]12C=CC(=O)C=C1CC[C@@H]1[C@@H]2CC[C@@]2(C)[C@H]1CC[C@]2(O)C(N)=O
> 100 µM: TGI [1] | TGI [2] | TGI [3] | TGI [10] | TGI [5] | TGI [6] | TGI [7] | TGI [8] | TGI [9]

Clc1ccc(Nc2nnc(CNc3ccc(-c4nnc(Nc5ccc(Cl)cc5)s4)cc3)s2)cc1
> 100 µM: TGI [1] | TGI [2] | TGI [10] | TGI [4] | TGI [5] | TGI [6] | TGI [7]
44.2 µM: TGI [8]
43.2 µM: TGI [9]

O=c1[nH]nc(Cc2ccccc2)n1/N=C/c1cccs1
> 100 µM: TGI [1] | TGI [2] | TGI [3] | TGI [10] | TGI [4] | TGI [5] | TGI [6] | TGI [7] | TGI [8]

CC(=O)Nc1[nH]n(C)c(=O)c1-c1nnc(C)s1
> 100 µM: TGI [1] | TGI [2] | TGI [3] | TGI [4] | TGI [5] | TGI [6] | TGI [7] | TGI [8] | TGI [9]

CC1(C)OC(=O)C(C)(C)C(=O)O1
> 100 µM: TGI [1] | TGI [10] | TGI [4] | TGI [5] | TGI [6] | TGI [7] | TGI [8] | TGI [9]

CC(C)(C)N=CN1C=Cc2nc3ccccc3cc2C1
> 100 µM: TGI [1] | TGI [3] | TGI [4] | TGI [5] | TGI [6] | TGI [8] | TGI [9]
49.2 µM: TGI [7]

O=C1[C@@H]2C(c3ccc(Br)cc3)=NO[C@@H]2C(=O)N1c1ccc(Cc2ccc(N3C(=O)[C@H]4C(c5ccc(Br)cc5)=NO[C@H]4C3=O)cc2)cc1
> 40 µM: TGI [2] | TGI [3] | TGI [4] | TGI [5] | TGI [6] | TGI [7] | TGI [8] | TGI [9]
> 3.48 µM: TGI [1]
inactive: GI50 [2] > 40 µM | GI50 [3] > 40 µM | GI50 [4] > 40 µM | GI50 [5] > 40 µM | GI50 [6] > 40 µM | GI50 [7] > 40 µM | GI50 [8] > 40 µM | GI50 [9] > 40 µM

COC(=O)C(=O)C(C(=O)OC)C(=O)C(=O)Nc1c(C)cccc1C (centres undefined)
> 100 µM: TGI [1] | TGI [2] | TGI [3] | TGI [4] | TGI [5] | TGI [6] | TGI [7] | TGI [8] | TGI [9]

COc1cc2ccc3c4ccccc4cnc3c2cc1OC
> 100 µM: TGI [1] | TGI [2] | TGI [3] | TGI [4] | TGI [5] | TGI [6] | TGI [7] | TGI [8] | TGI [9]

CNC(=O)c1n[nH]n(C2CCCCC2)c1=S
> 100 µM: TGI [1] | TGI [2] | TGI [4] | TGI [5] | TGI [6] | TGI [7] | TGI [8] | TGI [9]
37 µM: TGI [3]

CCOc1ccccc1N=Nc1ccc2oc(=O)c(C(C)=O)cc2c1
> 100 µM: TGI [1] | TGI [2] | TGI [3] | TGI [4] | TGI [5] | TGI [6] | TGI [7] | TGI [8] | TGI [9]

COc1nc(N=P(c2ccccc2)(c2ccccc2)c2ccccc2)cc(=O)n1C
> 100 µM: TGI [1] | TGI [2] | TGI [3] | TGI [10] | TGI [4] | TGI [5] | TGI [7] | TGI [8] | TGI [9]

Nc1nc2c(N)cc(C(F)(F)F)cc2nc1-c1ccccc1
> 100 µM: TGI [1] | TGI [3] | TGI [4] | TGI [5] | TGI [6] | TGI [7] | TGI [8] | TGI [9]

CC(C)[C@@H]1CC[C@@H](C)C[C@H]1OC(=O)c1c2n(c3ccccc13)C[C@H]1OC(C)(C)O[C@@H]21
87.3 µM: TGI [4]
> 100 µM: TGI [2] | TGI [3] | TGI [10] | TGI [5] | TGI [6] | TGI [7] | TGI [8]

O=Cc1c[nH]c2c(=O)[nH]cnc12
> 100 µM: TGI [1] | TGI [2] | TGI [3] | TGI [4] | TGI [5] | TGI [6] | TGI [7] | TGI [8] | TGI [9]

CC(C)N(C(=O)C12C3C4C1C1C2C3C41C#N)C(C)C (centres undefined)
> 68.1 µM: TGI [2]
> 100 µM: TGI [1] | TGI [3] | TGI [4] | TGI [5] | TGI [6] | TGI [7] | TGI [8] | TGI [9]

CC1=CC2C(C=C1)S(=O)(=O)N1CC21c1ccccc1 (centres undefined)
> 100 µM: TGI [1] | TGI [2] | TGI [3] | TGI [4] | TGI [5] | TGI [6] | TGI [7] | TGI [8] | TGI [9]

O=C(Cc1ccccc1)NN1C(=O)C(Cl)C1c1ccccc1Cl (centres undefined)
> 100 µM: TGI [1] | TGI [3] | TGI [4] | TGI [5] | TGI [6] | TGI [7] | TGI [8]
51.1 µM: TGI [2]
28 µM: TGI [9]

CC1=CC(=O)CC2(C)CCC(C(C)CC(=O)CC(C)C)CC12OO (centres undefined)
> 100 µM and 36.7 µM: TGI [6]
31.5 µM and 33 µM: TGI [5]
33.5 µM and 33.4 µM: TGI [4]
19.5 µM and 26.9 µM: TGI [9]
> 100 µM: TGI [1]
31.9 µM and 35.7 µM: TGI [7]
76.5 µM and 46.1 µM: TGI [2]
29.8 µM and 34.7 µM: TGI [8]
inactive: GI50 [9] 4.8 µM and 12.6 µM

Clc1ccc(Cl)c(N=Nc2cc3c4c(c2)CCN4CCC3)c1
> 10 µM: TGI [1] | TGI [2] | TGI [3] | TGI [4] | TGI [5] | TGI [6] | TGI [7] | TGI [8] | TGI [9]

FC(F)(F)c1ccccc1C1SCC2=Nc3ccccc3CN21 (centres undefined)
> 100 µM: TGI [2] | TGI [4] | TGI [7]
44.2 µM: TGI [10]
24.1 µM: TGI [8]
36.6 µM: TGI [5]
26.3 µM: TGI [1]

O=C1CN(c2ccccc2)Cc2nc(Cl)ccc2N1
> 100 µM: TGI [1] | TGI [2] | TGI [10] | TGI [4] | TGI [5] | TGI [6] | TGI [7] | TGI [8] | TGI [9]
